pIC50: −log10 of the molar value. Active and inactive are the calls of the source. No cut-off for these calls is given here.
Legend:
HCT-116 [1] = test: Induction of apoptosis in human HCT-116 cells assessed as increase in p-53 level at 0.2 to 5 uM measured after 24 hrs by Western blot analysis; format: functional, cell-based; conditions: dose 0.2-5 µM
HCT-116 [2] = test: Cell cycle arrest in human HCT-116 cells assessed as accumulation at S phase at 0.1 uM incubated for 24 hrs by propidium iodide staining based flow cytometric analysis (Rvb =44.3 %); format: functional
[3] = biological target: DNA topoisomerase 2-alpha (Homo sapiens) (UniProt P11388); test: Inhibition of TOP2 (unknown origin) assessed as formation of short DNA fragments using supercoiled plasmid DNA at 100 uM by ethidium bromide staining based gel
Sequence of DNA topoisomerase 2-alpha (Homo sapiens) (P11388 whole entry, the tested form may be a part): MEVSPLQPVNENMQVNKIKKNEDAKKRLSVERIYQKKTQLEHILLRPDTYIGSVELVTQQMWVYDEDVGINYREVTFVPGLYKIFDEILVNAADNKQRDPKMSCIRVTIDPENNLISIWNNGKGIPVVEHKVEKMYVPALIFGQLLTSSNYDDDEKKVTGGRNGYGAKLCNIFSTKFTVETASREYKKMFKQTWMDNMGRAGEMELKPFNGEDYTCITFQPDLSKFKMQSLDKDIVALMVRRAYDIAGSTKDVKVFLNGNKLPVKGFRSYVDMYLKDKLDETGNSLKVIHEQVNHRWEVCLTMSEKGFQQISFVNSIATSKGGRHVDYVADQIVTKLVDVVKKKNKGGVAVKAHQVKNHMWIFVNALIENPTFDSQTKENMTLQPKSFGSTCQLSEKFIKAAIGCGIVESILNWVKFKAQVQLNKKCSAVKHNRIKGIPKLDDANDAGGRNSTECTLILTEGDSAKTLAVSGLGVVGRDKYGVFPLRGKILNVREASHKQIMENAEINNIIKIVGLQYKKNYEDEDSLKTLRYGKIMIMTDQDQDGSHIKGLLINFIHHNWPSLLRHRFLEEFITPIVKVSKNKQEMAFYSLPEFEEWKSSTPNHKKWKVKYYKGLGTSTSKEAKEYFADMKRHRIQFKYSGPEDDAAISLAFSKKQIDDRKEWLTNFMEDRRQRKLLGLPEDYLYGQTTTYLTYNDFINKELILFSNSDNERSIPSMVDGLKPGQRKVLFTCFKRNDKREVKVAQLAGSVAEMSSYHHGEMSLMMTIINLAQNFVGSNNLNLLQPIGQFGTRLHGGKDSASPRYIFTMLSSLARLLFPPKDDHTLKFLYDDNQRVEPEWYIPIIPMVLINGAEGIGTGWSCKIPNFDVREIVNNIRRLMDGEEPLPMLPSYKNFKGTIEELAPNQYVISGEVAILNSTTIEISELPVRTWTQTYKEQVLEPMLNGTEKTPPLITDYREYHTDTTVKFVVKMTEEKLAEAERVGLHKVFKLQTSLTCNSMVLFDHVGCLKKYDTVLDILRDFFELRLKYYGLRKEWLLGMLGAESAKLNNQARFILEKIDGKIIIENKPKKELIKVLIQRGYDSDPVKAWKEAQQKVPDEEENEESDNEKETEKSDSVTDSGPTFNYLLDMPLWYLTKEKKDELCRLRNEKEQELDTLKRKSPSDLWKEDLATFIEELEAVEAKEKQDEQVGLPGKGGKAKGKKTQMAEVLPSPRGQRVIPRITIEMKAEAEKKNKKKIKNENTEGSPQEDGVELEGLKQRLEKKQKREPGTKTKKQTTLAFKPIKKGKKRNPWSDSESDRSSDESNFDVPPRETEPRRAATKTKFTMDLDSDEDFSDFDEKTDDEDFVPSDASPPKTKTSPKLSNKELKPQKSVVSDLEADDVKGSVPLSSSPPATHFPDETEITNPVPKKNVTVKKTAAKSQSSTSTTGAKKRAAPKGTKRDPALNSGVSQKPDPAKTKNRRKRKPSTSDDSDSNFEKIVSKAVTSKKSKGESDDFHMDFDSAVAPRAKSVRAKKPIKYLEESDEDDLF

[4] = Half life in mouse liver microsomes; format: ADME, Microsome
HCT-116 [5] = test: Cell cycle arrest in human HCT-116 cells assessed as accumulation at G2 phase at 0.5 uM incubated for 24 hrs by propidium iodide staining based flow cytometric analysis (Rvb =20 %); format: functional
A549 = test: Antiproliferative activity against human A549 cells assessed as inhibition of cell proliferation incubated for 72 hrs by CCK8 assay; format: functional, cell-based; conditions: A549, 72 h
HCT-116 [6] = test: Cell cycle arrest in human HCT-116 cells assessed as accumulation at G1 phase at 0.5 uM incubated for 24 hrs by propidium iodide staining based flow cytometric analysis (Rvb =35.7 %); format: functional
HCT-116 [7] = test: Induction of apoptosis in human HCT-116 cells assessed as late apoptotic cells level at 0.1 uM incubated for 48 hrs by annexin V-FITC/propidium iodide staining based flow cytometry (reference value: 1.87%); format: functional
HCT-116 [8] = test: Cell cycle arrest in human HCT-116 cells assessed as accumulation at G1 phase at 0.1 uM incubated for 24 hrs by propidium iodide staining based flow cytometric analysis (Rvb =35.7 %); format: functional
HCT-116 [9] = test: Induction of apoptosis in human HCT-116 cells assessed as increase in ratio of Bax to Bcl2 level at 0.2 to 5 uM measured after 24 hrs by Western blot analysis; format: functional, cell-based; conditions: dose 0.2-5 µM
HCT-116 [10] = test: Antiproliferative activity against human HCT-116 cells assessed as inhibition of cell proliferation incubated for 72 hrs by CCK8 assay; format: functional, cell-based; conditions: HCT-116, 72 h

inhibition [3]: Active | half-life [4]: 58.4 min | pIC50 (A549): 5.59 | pIC50 (HCT-116 [10]): 7.18
Structure (SMILES): CN1c2ccccc2C(=O)N2CCc3c([nH]c4ccc(OP(=O)(O)O)cc34)C21 (stereo unspecified)
Activity (HCT-116 [1]): Active | Activity (HCT-116 [2]): 40.7% | Activity (HCT-116 [5]): 65.3% | Activity (HCT-116 [6]): 4.3% | Activity (HCT-116 [7]): 14.8% | Activity (HCT-116 [8]): 6% | Activity (HCT-116 [9]): Active

From ChEMBL document CHEMBL4837225, “Water-soluble derivatives of evodiamine: Discovery of evodiamine-10-phosphate as an orally active antitumor lead compound” (Eur J Med Chem, 2021)
